# Patent publication US9439899B2, “Cancer therapy using a combination of HSP90 inhibitors with topoisomerase I inhibitors” (Synta Pharmaceuticals Corp., priority 2011, dated 2016)
# System: HCT-116 colorectal cancer cells
# Assay: Cell viability (alamarBlue) assay, single agents and combinations, in HCT-116 colorectal cancer cells
# Assay type: cell-based
# Details: Homo sapiens; HCT-116 cells exposed to drug for 72 hr; 1.5-fold serial dilution; four parameter logistic fit; read-out: half maximal inhibitory concentration (IC50), cell viability
# Procedure: Human HCT-116 colorectal cancer cells (CRC) were purchased from the American Type Culture Collection (Manassas, Va.) and grown in McCoy's 5a media (Sigma), following ATCC recommendations, in the presence of fetal bovine serum (10%), 2 mM L-glutamine and antibiotics (100 IU/ml penicillin and 100 μg/ml streptomycin, Sigma). Cells were maintained at 37° C., 5% CO2 atmosphere.
# Cell viability was measured using the alamarBlue assay (Invitrogen). In brief, cells were plated in 96-well plates in triplicate at 5K cells per well and incubated at 37° C., 5% CO2 atmosphere for 24 hr prior to the addition of drug or vehicle (0.3% DMSO) to the culture medium. After 72 hr, 10 μl/well alamarBlue was added to the wells and incubated for an additional 3 hr at 37° C., 5% CO2 atmosphere. Fluorescence (560EX/590EM […]) was measured with a SpectraMax microplate reader (Molecular Devices) and the resulting data were used to calculate cell viability, normalized to vehicle control. […]
# Combinations between ganetespib and irinotecan were then performed in HCT-116 cells concurrently based on the IC50 for each agent in matrix format with 54 combination pairs for each drug. The combined drugs, as well as each drug alone, were incubated with the cells for 3 days and the surviving fraction of cells relative to control was determined using the alamarBlue assay.
row,IC50,SMILES
1,~32 nM,"CC(C)c1cc(-c2nnc(O)n2-c2ccc3c(ccn3C)c2)c(O)cc1O [ganetespib, 3-(2,4-DIHYDROXY-5- ISOPROPYL-PHENYL)-4-(1- METHYL-INDOL-5-YL)-5- HYDROXY-[1,2,4] TRIAZOLE]"
2,~2300 nM,CCc1c2c(nc3ccc(OC(=O)N4CCC(N5CCCCC5)CC4)cc13)-c1cc3c(c(=O)n1C2)COC(=O)[C@]3(O)CC [irinotecan]
